Values of other authors in patent US20250043462A1, “INSECT REPELLENT POLYETHYLENE TEREPHTHALATE FIBERS” (The Government of the United States of America, as …, priority 2023, published 2025).

Details: commercially available repellent sprays

SMILES: CCN(CC)C(=O)c1cccc(C)c1 [DEET, N,N,-diethyl-meta-toluamide]
- duration of repellency before reapplication: up to 10 h

SMILES: CCC(C)OC(=O)N1CCCCC1CCO (centres unmarked) [Picaridin, 1-(1-methylpropoxycarbonyl)-2-(2-hydroxyethyl)piperidine]
- duration of repellency before reapplication: ≤ 8 h
